# ChEMBL document CHEMBL4261496, “Targeting quinolone- and aminocoumarin-resistant bacteria with new gyramide analogs that inhibit DNA gyrase” (Medchemcomm, 2017)
# The source made the active and inactive calls. The calls are words filed in the database; no cut-off is given here.
# Experiments:
# Escherichia coli [1] = assay: Ratio of MIC for ciprofloxacin-resistant Escherichia coli JW5503 harboring GyrB Ser464Phe mutant to MIC for Escherichia coli JW5503; format: functional
# Escherichia coli [2] = assay: Antibacterial activity against gyramide-resistant Escherichia coli JW5503 harboring GyrA Ser97Pro mutant after 16 to 18 hrs by broth microdilution method; format: functional
# Escherichia coli [3] = assay: Antibacterial activity against Escherichia coli BW25113 after 16 to 18 hrs by broth microdilution method; format: functional
# Klebsiella aerogenes = assay: Antibacterial activity against Enterobacter aerogenes clinical isolate after 16 to 18 hrs by broth microdilution method; format: functional
# Escherichia coli [4] = assay: Ratio of MIC for ciprofloxacin-resistant Escherichia coli JW5503 harboring GyrA Asp87Gly mutant to MIC for Escherichia coli JW5503; format: functional
# Escherichia coli [5] = assay: Antibacterial activity against ciprofloxacin-resistant Escherichia coli JW5503 harboring GyrA Ser83Leu mutant after 16 to 18 hrs by broth microdilution method; format: functional
# Enterococcus faecalis = assay: Antibacterial activity against Enterococcus faecalis after 16 to 18 hrs by broth microdilution method; format: functional
# Escherichia coli [6] = assay: Ratio of MIC for gyramide-resistant Escherichia coli JW5503 harboring GyrA Pro35Thr mutant to MIC for Escherichia coli JW5503; format: functional
# Escherichia coli [7] = assay: Ratio of MIC for gyramide-resistant Escherichia coli JW5503 harboring GyrA Phe96Leu mutant to MIC for Escherichia coli JW5503; format: functional
# DNA gyrase = DNA gyrase (Escherichia coli, UniProt P0AES4+P0AES6); assay: Inhibition of Escherichia coli DNA gyrase assessed as inhibition of pUC19 supercoiling after 30 mins by agarose gel electrophoresis; format: protein-complex assay
# Bacillus subtilis = assay: Antibacterial activity against Bacillus subtilis after 16 to 18 hrs by broth microdilution method; format: functional
# Morganella morganii = assay: Antibacterial activity against Morganella morganii clinical isolate after 16 to 18 hrs by broth microdilution method; format: functional
# Escherichia coli [8] = assay: Antibacterial activity against Escherichia coli MC4100 after 16 to 18 hrs by broth microdilution method; format: functional
# Escherichia coli [9] = assay: Ratio of MIC for gyramide-resistant Escherichia coli JW5503 harboring GyrA Ser97Pro mutant to MIC for Escherichia coli JW5503; format: functional
# Escherichia coli [10] = assay: Antibacterial activity against gyramide-resistant Escherichia coli JW5503 harboring GyrA Phe96Leu mutant after 16 to 18 hrs by broth microdilution method; format: functional
# Streptococcus pyogenes = assay: Antibacterial activity against Streptococcus pyogenes after 16 to 18 hrs by broth microdilution method; format: functional
# Bacillus cereus = assay: Antibacterial activity against Bacillus cereus after 16 to 18 hrs by broth microdilution method; format: functional
# Edwardsiella tarda = assay: Antibacterial activity against Edwardsiella tarda clinical isolate after 16 to 18 hrs by broth microdilution method; format: functional
# Streptococcus agalactiae = assay: Antibacterial activity against Streptococcus agalactiae after 16 to 18 hrs by broth microdilution method; format: functional
# Escherichia coli [11] = assay: Ratio of MIC for gyramide-resistant Escherichia coli JW5503 harboring GyrB Ser464Phe mutant to MIC for Escherichia coli JW5503; format: functional
# Klebsiella pneumoniae = assay: Antibacterial activity against Klebsiella pneumoniae after 16 to 18 hrs by broth microdilution method; format: functional
# Escherichia coli [12] = assay: Ratio of MIC for ciprofloxacin-resistant Escherichia coli JW5503 harboring GyrA Asp87Tyr mutant to MIC for Escherichia coli JW5503; format: functional
# Shigella flexneri = assay: Antibacterial activity against Shigella flexneri after 16 to 18 hrs by broth microdilution method; format: functional
# Escherichia coli [13] = assay: Antibacterial activity against gyramide-resistant Escherichia coli JW5503 harboring GyrA His45Tyr mutant after 16 to 18 hrs by broth microdilution method; format: functional
# Escherichia coli [14] = assay: Ratio of MIC for novobiocin-resistant Escherichia coli LE316 harboring GyrB Arg136Val mutant to MIC for Escherichia coli HB101; format: functional
# Salmonella typhimurium = assay: Antibacterial activity against Salmonella enterica subsp. enterica serovar Typhimurium after 16 to 18 hrs by broth microdilution method; format: functional
# Escherichia coli [15] = assay: Antibacterial activity against ciprofloxacin-resistant Escherichia coli JW5503 harboring GyrB Ser464Phe mutant after 16 to 18 hrs by broth microdilution method; format: functional
# Acinetobacter baumannii = assay: Antibacterial activity against Acinetobacter baumannii clinical isolate after 16 to 18 hrs by broth microdilution method; format: functional
# Pseudomonas aeruginosa = assay: Antibacterial activity against Pseudomonas aeruginosa after 16 to 18 hrs by broth microdilution method; format: functional
# Escherichia coli [16] = assay: Antibacterial activity against gyramide-resistant Escherichia coli JW5503 harboring GyrA Pro35Thr mutant after 16 to 18 hrs by broth microdilution method; format: functional
# Escherichia coli [17] = assay: Antibacterial activity against gyramide-resistant Escherichia coli JW5503 harboring GyrB Thr508Met mutant after 16 to 18 hrs by broth microdilution method; format: functional
# Escherichia coli [18] = assay: Ratio of MIC for novobiocin-resistant Escherichia coli CC7 harboring GyrB Arg136Ser mutant to MIC for Escherichia coli HB101; format: functional
# Escherichia coli [19] = assay: Ratio of MIC for ciprofloxacin-resistant Escherichia coli JW5503 harboring GyrA Ser83Leu mutant to MIC for Escherichia coli JW5503; format: functional
# Escherichia coli [20] = assay: Antibacterial activity against Escherichia coli UPEC after 16 to 18 hrs by broth microdilution method; format: functional
# [21] = test system: Staphylococcus saprophyticus; assay: Antibacterial activity against Staphylococcus saprophyticus clinical isolate after 16 to 18 hrs by broth microdilution method; format: functional
# Escherichia coli [22] = assay: Antibacterial activity against novobiocin-resistant Escherichia coli LE316 harboring GyrB Arg136Val mutant after 16 to 18 hrs in presence of PAbetaN by broth microdilution method; format: functional
# Escherichia coli [23] = assay: Antibacterial activity against ciprofloxacin-resistant Escherichia coli JW5503 harboring GyrA Asp87Gly mutant after 16 to 18 hrs by broth microdilution method; format: functional
# Enterococcus faecium = assay: Antibacterial activity against Enterococcus faecium after 16 to 18 hrs by broth microdilution method; format: functional
# [24] = target: DNA gyrase (Escherichia coli) (UniProt P0AES6+P0AES4); assay: Inhibition of Escherichia coli DNA gyrase ATPase activity up to 100 uM using DNA as substrate after 60 mins; format: protein-complex assay
# Escherichia coli [25] = assay: Antibacterial activity against ciprofloxacin-resistant Escherichia coli JW5503 harboring GyrA Asp87Tyr mutant after 16 to 18 hrs by broth microdilution method; format: functional
# Staphylococcus aureus = assay: Antibacterial activity against Staphylococcus aureus subsp. aureus clinical isolate after 16 to 18 hrs by broth microdilution method; format: functional
# Escherichia coli [26] = assay: Antibacterial activity against Escherichia coli HB101 after 16 to 18 hrs in presence of PAbetaN by broth microdilution method; format: functional
# Escherichia coli [27] = assay: Antibacterial activity against Escherichia coli HB101 after 16 to 18 hrs by broth microdilution method; format: functional
# Escherichia coli [28] = assay: Ratio of MIC for novobiocin-resistant Escherichia coli CC5 harboring GyrB Arg136His mutant to MIC for Escherichia coli HB101; format: functional
# [29] = test system: Staphylococcus epidermidis; assay: Antibacterial activity against Staphylococcus epidermidis clinical isolate after 16 to 18 hrs by broth microdilution method; format: functional
# Escherichia coli [30] = assay: Ratio of MIC for gyramide-resistant Escherichia coli JW5503 harboring GyrA His45Tyr mutant to MIC for Escherichia coli JW5503; format: functional
# [31] = Ratio of MIC for Escherichia coli BW25113 to MIC for Escherichia coli JW5503; format: functional
# Escherichia coli [32] = assay: Antibacterial activity against Escherichia coli BAS849 after 16 to 18 hrs by broth microdilution method; format: functional
structure (smiles),measurement,setting,value
Cc1ccc(C(F)(F)F)cc1S(=O)(=O)N[C@@H]1CCN(Cc2ccc(OC3CC3)cc2)C1,Ratio,Escherichia coli [1],2 - 4
same,MIC,Escherichia coli [2],22 µg/mL
same,MIC,Escherichia coli [3],8 µg/mL
same,MIC,Klebsiella aerogenes,> 16 µg/mL
same,Ratio,Escherichia coli [4],2 - 4
same,MIC,Escherichia coli [5],0.4 µg/mL
same,MIC,Enterococcus faecalis,16 µg/mL
same,Ratio,Escherichia coli [6],10 - 100
same,Ratio,Escherichia coli [7],10 - 100
same,IC50,DNA gyrase,0.17 µM
same,MIC,Bacillus subtilis,8 µg/mL
same,MIC,Morganella morganii,> 16 µg/mL
same,MIC,Escherichia coli [8],16 µg/mL
same,Ratio,Escherichia coli [9],10 - 100
same,MIC,Escherichia coli [10],11 µg/mL
same,MIC,Streptococcus pyogenes,4 µg/mL
same,MIC,Bacillus cereus,8 µg/mL
same,MIC,Edwardsiella tarda,8 µg/mL
same,MIC,Streptococcus agalactiae,8 µg/mL
same,Ratio,Escherichia coli [11],10 - 100
same,MIC,Klebsiella pneumoniae,> 16 µg/mL
same,Ratio,Escherichia coli [12],2 - 4
same,MIC,Shigella flexneri,4 µg/mL
same,MIC,Escherichia coli [13],22 µg/mL
same,Ratio,Escherichia coli [14],2 - 4
same,MIC,Salmonella typhimurium,4 µg/mL
same,MIC,Escherichia coli [15],1.6 µg/mL
same,MIC,Acinetobacter baumannii,> 16 µg/mL
same,MIC,Pseudomonas aeruginosa,> 16 µg/mL
same,MIC,Escherichia coli [16],11 µg/mL
same,MIC,Escherichia coli [17],5.5 µg/mL
same,Ratio,Escherichia coli [18],2 - 4
same,Ratio,Escherichia coli [19],2 - 4
same,MIC,Escherichia coli [20],> 16 µg/mL
same,MIC,[21],8 µg/mL
same,MIC,Escherichia coli [22],0.2 µg/mL
same,MIC,Escherichia coli [23],0.8 µg/mL
same,MIC,Enterococcus faecium,8 µg/mL
same,inhibition,[24],inactive
same,MIC,Escherichia coli [25],0.2 µg/mL
same,MIC,Staphylococcus aureus,8 µg/mL
same,MIC,Escherichia coli [26],0.1 µg/mL
same,MIC,Escherichia coli [27],4 µg/mL
same,Ratio,Escherichia coli [28],2 - 4
same,MIC,[29],8 µg/mL
same,Ratio,Escherichia coli [30],10 - 100
same,Ratio,[31],20
same,MIC,Escherichia coli [32],1 µg/mL
